Assays:
Assay in all cases: relative viability (nuclei count vs DMSO), 5 days (fraction); higher = more cells survive
Neratinib + Pemetrexed = compound: CCOc1cc2ncc(C#N)c(Nc3ccc(OCc4ccccn4)c(Cl)c3)c2cc1NC(=O)/C=C/CN(C)C [Neratinib] + Nc1nc2[nH]cc(CCc3ccc(C(=O)N[C@@H](CCC(=O)O)C(=O)O)cc3)c2c(=O)[nH]1 [Pemetrexed] (partner 0.2 µM)
How it was run: (§1)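 Relative viability divides the nuclei count in treated wells by that in vehicle wells. Lung cancer cell lines were seeded in 1536-well plates, dosed by pin tool the next day, and fixed and stained after 5 days in one step with final 0.05% Triton X-100, 1% formaldehyde and 1 ug/ml Hoechst. Dosing was a single drug or a fixed anchor-drug dose plus five library-drug doses (not always all listed) in √10 steps, and values are medians of duplicate plates imaged at 4×.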

Neratinib + Navitoclax = compound: CCOc1cc2ncc(C#N)c(Nc3ccc(OCc4ccccn4)c(Cl)c3)c2cc1NC(=O)/C=C/CN(C)C [Neratinib] + CC1(C)CCC(c2ccc(Cl)cc2)=C(CN2CCN(c3ccc(C(=O)NS(=O)(=O)c4ccc(N[C@H](CCN5CCOCC5)CSc5ccccc5)c(S(=O)(=O)C(F)(F)F)c4)cc3)CC2)C1 [Navitoclax] (partner 0.5 µM)
How it was run: as §1

Neratinib + Vorinostat = compound: CCOc1cc2ncc(C#N)c(Nc3ccc(OCc4ccccn4)c(Cl)c3)c2cc1NC(=O)/C=C/CN(C)C [Neratinib] + O=C(CCCCCCC(=O)Nc1ccccc1)NO [Vorinostat] (partner 1 µM)
How it was run: as §1

Neratinib + Linsitinib = compound: CCOc1cc2ncc(C#N)c(Nc3ccc(OCc4ccccn4)c(Cl)c3)c2cc1NC(=O)/C=C/CN(C)C [Neratinib] + C[C@]1(O)C[C@@H](c2nc(-c3ccc4ccc(-c5ccccc5)nc4c3)c3c(N)nccn32)C1 [Linsitinib] (partner 1 µM)
How it was run: as §1

| Cell Line | relative viability (Neratinib + Pemetrexed; first compound 0.01 µM) | relative viability (Neratinib + Pemetrexed; first compound 0.03162 µM) | relative viability (Neratinib + Pemetrexed; first compound 0.1 µM) | relative viability (Neratinib + Pemetrexed; first compound 1 µM) | relative viability (Neratinib + Navitoclax; first compound 0.03162 µM) | relative viability (Neratinib + Navitoclax; first compound 0.1 µM) | relative viability (Neratinib + Navitoclax; first compound 0.3162 µM) | relative viability (Neratinib + Navitoclax; first compound 1 µM) | relative viability (Neratinib + Vorinostat; first compound 0.01 µM) | relative viability (Neratinib + Vorinostat; first compound 0.03162 µM) | relative viability (Neratinib + Vorinostat; first compound 0.1 µM) | relative viability (Neratinib + Vorinostat; first compound 1 µM) | relative viability (Neratinib + Linsitinib; first compound 0.01 µM) | relative viability (Neratinib + Linsitinib; first compound 0.03162 µM) | relative viability (Neratinib + Linsitinib; first compound 0.1 µM) | relative viability (Neratinib + Linsitinib; first compound 0.3162 µM) | relative viability (Neratinib + Linsitinib; first compound 1 µM) | relative viability (Neratinib + Pemetrexed; first compound 0.3162 µM) | relative viability (Neratinib + Navitoclax; first compound 0.01 µM) | relative viability (Neratinib + Vorinostat; first compound 0.3162 µM) |
| --- | --- | --- | --- | --- | --- | --- | --- | --- | --- | --- | --- | --- | --- | --- | --- | --- | --- | --- | --- | --- |
| HOP-62 | 0.323 | 0.31 | 0.206 | 0.241 | 1.07 | 1.1 | 0.996 | 1.1 | 0.608 | 0.691 | 0.586 | 0.72 | 0.864 | 1.03 | 1.06 | 1.09 | 1.07 | – | – | – |
| LC-2-ad | 0.25 | 0.258 | 0.274 | 0.24 | 0.398 | 0.411 | 0.315 | 0.135 | 0.662 | 0.739 | 0.687 | 0.709 | 0.87 | 0.842 | 0.785 | 0.673 | 0.321 | 0.282 | 0.519 | 0.664 |
| LCLC-97TM1 | 0.186 | 0.209 | 0.138 | 0.185 | 0.381 | 0.633 | 0.511 | 0.294 | 0.985 | 0.822 | 0.762 | 0.48 | 0.215 | 0.194 | 0.165 | 0.161 | 0.155 | – | 0.402 | – |
| LK-2 | 0.318 | 0.464 | 0.265 | 0.151 | 0.97 | 0.859 | 0.639 | 0.342 | 0.29 | 0.37 | 0.292 | 0.271 | 0.464 | 0.521 | 0.71 | 0.339 | 0.214 | 0.221 | 0.944 | 0.219 |
| LOU-NH91 | 0.383 | 0.439 | 0.426 | 0.424 | 0.582 | 0.517 | 0.374 | 0.279 | 0.936 | – | 0.748 | 0.609 | 0.871 | 0.831 | 0.656 | 0.504 | 0.529 | 0.43 | 0.682 | – |
| LU99A | 0.185 | 0.194 | 0.155 | 0.188 | 0.881 | 0.708 | 0.799 | 0.359 | 0.428 | 0.465 | 0.469 | 0.43 | 0.608 | 0.643 | 0.365 | 0.575 | 0.215 | 0.21 | – | 0.529 |
| LXF-289 | 0.881 | 0.981 | 0.834 | 0.87 | 0.972 | 0.923 | – | 0.878 | 0.819 | 0.866 | 0.732 | 0.765 | 0.998 | 1.01 | 0.913 | 0.98 | 0.789 | 0.933 | 0.975 | 0.803 |
| NCI-H23 | 0.702 | 0.641 | 0.619 | 0.499 | 1.12 | 0.694 | 0.838 | 0.528 | 0.699 | 0.7 | 0.641 | 0.491 | 0.62 | – | 0.486 | 0.552 | 0.398 | 0.664 | 0.745 | 0.493 |
| NCI-H322M | 0.642 | 0.652 | 0.598 | 0.371 | 1.17 | 0.558 | 0.701 | 0.627 | 0.98 | 0.859 | 0.822 | 0.445 | 0.752 | 0.929 | 0.793 | 0.486 | 0.337 | 0.448 | 1.18 | 0.524 |
| NCI-H441 | 0.256 | 0.266 | 0.261 | 0.248 | 0.571 | 0.707 | 0.624 | 0.173 | 0.794 | 0.817 | 0.747 | 0.633 | 0.585 | 0.716 | 0.469 | 0.267 | 0.219 | 0.278 | 0.767 | 0.777 |
| NCI-H460 | 0.062 | 0.0586 | 0.063 | 0.0813 | 1.3 | – | 1.11 | 0.441 | 0.779 | 0.984 | 0.429 | 0.518 | 0.918 | 1.1 | – | 0.612 | 0.222 | 0.0641 | 1.37 | 0.716 |
| NCI-H520 | 0.631 | 0.735 | – | – | 1.42 | 0.965 | 1.03 | 0.779 | 0.759 | 0.686 | – | 0.509 | 1.04 | 0.981 | 1.08 | 0.742 | – | 0.505 | 1.1 | 0.615 |
| NCI-H596 | 0.523 | 0.529 | 0.472 | 0.488 | 1.01 | 0.954 | 1.04 | 0.787 | 0.5 | 0.641 | 0.631 | 0.73 | 1.2 | 1.07 | 0.995 | 0.923 | 0.791 | 0.493 | 0.998 | 0.622 |
| NCI-H647 | 0.187 | 0.174 | 0.19 | 0.134 | 1.41 | 1.05 | 1.12 | 0.383 | 0.634 | 0.595 | 0.488 | 0.0941 | 1.08 | 1.16 | 1.14 | 1.07 | 0.601 | 0.156 | 1.14 | 0.401 |
| NCI-H838 | 0.247 | 0.268 | 0.242 | 0.243 | 1.22 | 0.972 | 0.995 | 0.588 | – | 0.794 | 0.705 | 0.619 | 1.06 | 1.17 | 0.945 | 0.819 | 0.409 | 0.239 | 1.21 | 0.735 |
| NCI-H1355 | 1.07 | 1.03 | 0.951 | 0.821 | 1.06 | 0.825 | 0.843 | 0.618 | 0.724 | 0.649 | 0.591 | 0.447 | 0.894 | 0.825 | 0.775 | 0.63 | 0.453 | 1.02 | 0.912 | 0.602 |
| NCI-H1395 | 1.01 | 0.982 | 0.862 | 0.614 | 1.24 | 1.14 | 1.08 | 0.734 | 0.846 | 0.698 | – | 0.595 | 1.13 | 1.24 | 0.991 | 1.2 | 0.619 | 0.877 | 1.16 | 0.722 |

From the supplement of paper PMC10307832
